Measurements published in US20210113586A1, “NEW USE AND METHODS OF MODULATING IMMUNE RESPONSES” (DIAMYD MEDICAL AB, priority 2018, published 2021).

How the values were obtained:
Format in all cases: cell-based, human
responder CD4+ T cells = assay: Multiplex PEA of cytokines released into culture medium by responder CD4+ T cells
Protocol: (§1) The proliferation of freshly isolated human PBMCs or CD4^+ T cells was evaluated with MTT (3-(4,5-Dimethylthiazol-2-yl)-2,5-Diphenyltetrazolium Bromide) assay (Ring et al., 2012). Cells were suspended in complete medium (RPMI 1640 supplemented with 2 mM glutamine, 25 mM HEPES, 10% heat inactivated fetal bovine serum, 100 U/ml penicillin, 10 mg/ml streptomycin, 5 mM R-mercaptoethanol) in a concentration 1 million cells per milliliter. The assay was performed in 96-well plates in duplicates or triplicates, where each well was pre-coated with 3 μg/ml anti-CD3 antibody for 3-5 h at 37° C. Each well was loaded with 100,000 cells. Drugs were added to the wells at the relevant concentrations. The plate was incubated for 68 h at 37° C. (95% O2, 5% CO2) and then, a media-soluble tetrazolium dye MTT was added to a final concentration of 1 mM after which the plate was incubated for additional 4 h. The plate was then centrifuged at 2,000 RPM for 10 min to pellet the insoluble purple formazan crystals. The supernatant culture media was collected, stored at −80° C. and used for analysis of cytokines using the multiplex proximity extension assay (PEA). The formazan crystal pellet was dissolved in DMSO and the plate was read within 10 min using a Multiskan MS plate reader (Labsystems) at 550 nm. The optical density value was used as the proliferation index value. Drugs were purchased from Sigma-Aldrich or Tocris (Bristol, UK).
Plasma samples, and culture media samples that were collected from plate wells at the end of the proliferation assay, were analyzed by multiplex PEA with an Olink Inflammation […] panel, targeting 92 proteins related to inflammation (Olink Proteomics, Uppsala, Sweden) as previously described (Edvinsson et al., 2017, Assarsson et al., 2014, Larsson et al., 2015, Larssen et al., 2017). Briefly, 1 μl of sample (plasma samples or cell culture media samples) or negative control was mixed with 3 μl probe solution containing a set of 92 paires DNA-oligonucleotide-conjugated antibodies. Upon recognition of a target protein by a pair of probes, the DNA oligonucletodies on the antibodies are brought in proximity and hybridize to each other, followed by enzymatic DNA polymerization to form a new DNA molecule. The newly formed DNA molecule is then amplified and quantified using a microfluidic real-time qPCR, BioMark™ HD (Fluidigm, South San Francisco, Calif., USA). The generated quantification cycle (Cq) values are normalized against spiked-in controls to convert Cq values to Normalized Protein eXpression (NPX) value on log2 scale. NPX is an arbitrary unit, which is positively correlated to protein concentration. These NPX data were then converted to linear data, using the formula 2^NPX, prior to further statistical analysis. Limit of detection (LOD) for each protein was defined as three standard deviations above the background. Proteins with levels below LOD were excluded from further data analysis.

[1] = system: non-responder CD4+ T cells; assay: Proliferation of anti-CD3 stimulated GABA non-responder CD4+ T cells from ND individuals
Protocol: (§2) Peripheral Blood Mononuclear cells (PBMCs) are isolated from blood from donors diagnosed with Type-1 diabetes and healthy controls. Alternatively, CD4-positive cells (T-cells) are further isolated from PBMCs by e.g. MACS beads, FACS or similar technology. […] A reasonable replication, such as 3 cultures of each condition, is performed. A normalized proliferation value for each culture is then calculated by a standard proliferation measurement method, such as by CFSE staining or radioactive thymidine incorporation (requiring additional factors be added during culture) or by staining for proliferation markers.
(§3) In the FIG. 1, the proliferation of cells retrieved from 13 T1D subjects and 15 healthy controls were inspected. […] A normalized proliferation index was calculated for each culture.
The proliferation of freshly isolated human PBMCs or CD4^+ T cells was evaluated with MTT (3-(4,5-Dimethylthiazol-2-yl)-2,5-Diphenyltetrazolium Bromide) assay (Ring et al., 2012). Cells were suspended in complete medium (RPMI 1640 supplemented with 2 mM glutamine, 25 mM HEPES, 10% heat inactivated fetal bovine serum, 100 U/ml penicillin, 10 mg/ml streptomycin, 5 mM R-mercaptoethanol) in a concentration 1 million cells per milliliter. […] The formazan crystal pellet was dissolved in DMSO and the plate was read within 10 min using a Multiskan MS plate reader (Labsystems) at 550 nm. […]

GABAA receptors = assay: Patch-clamp single-channel current recording in CD4+ T cells; settings: GABA 100 or 500 nM; n=54 cells; FIG. 3i
Protocol: GABA-activated currents were recorded by the patch-clamp technique as previously described (Bjurstom et al., 2008, Jin et al., 2011a). Extracellular recording solution contained (in mM): 145 NaCl, 3 KCl, 1 CsCl, 1 CaCl2, 1 MgCl2, 10 glucose and 10 TES; the pH was adjusted to 7.4 with NaOH. To record in the whole-cell configuration, the pipette solution contained (in mM): 136 CsCl, 20 KCl, 1 MgCl2, 3 MgATP and 10 TES; pH was adjusted to 7.3 with CsOH. The pipette solution for the cell-attached configuration contained (in mM): 69 NaCl, 5 KCl, 75 CsCl, 1 CaCl2, 1 MgCl2 and 10 TES; pH was adjusted to 7.4 with NaOH. […] The pipette potential (Vp) was −80 mV (hyperpolarizing) in the whole-cell configuration and −60 mV (depolarizing) in the cell-attached configuration.

[2] = system: PBMCs from T1D individuals; assay: Proliferation of anti-CD3 stimulated PBMCs from T1D donors; settings: Example 1, FIG. 1D; PBMCs from all 13 T1D donors; 100 nM GABA
Protocol: as §2, §3
as §1, with “The optical density value was used as the proliferation index value. Drugs were purchased from Sigma-Aldrich or Tocris (Bristol, UK).” left out

[3] = GABA 100 nM, responder CD4+ T cells, normalized to control
[4] = GABA 500 nM, responder CD4+ T cells, normalized to control

For `NCCCC(=O)O` [GABA, gamma-aminobutyric acid], which “number of cytokines whose release was significantly decreased” value (responder CD4+ T cells; 100 nM GABA) is on record?
The value was 27 cytokines.

What about the “number of cytokines whose release was significantly decreased” value (responder CD4+ T cells; 500 nM GABA) of the same molecule?
The value was 25 cytokines.

What about the “4E-BP1 in culture medium, % Mean” value (responder CD4+ T cells; [3]) of the same molecule?
The value was 67.1%.

What about the “ADA in culture medium, % Mean” value (responder CD4+ T cells; [3]) of the same molecule?
Its value is 79.3%.

What about the “CASP-8 in culture medium, % Mean” value (responder CD4+ T cells; [3]) of the same molecule?
The value was 66.3%.

And the “CCL19 in culture medium, % Mean” value (responder CD4+ T cells; [3])?
The value was 68.7%.

And the “CCL20 in culture medium, % Mean” value (responder CD4+ T cells; [3])?
Its value is 61.5%.

And the “CSCP1 in culture medium, % Mean” value (responder CD4+ T cells; [3])?
The value was 60.6%.

And the “CSF-1 in culture medium, % Mean” value (responder CD4+ T cells; [3])?
Its value is 84.2%.

And the “CXCL10 in culture medium, % Mean” value (responder CD4+ T cells; [3])?
Its value is 62.7%.

What about the “CXCL11 in culture medium, % Mean” value (responder CD4+ T cells; [3]) of the same molecule?
The value was 69.1%.

And the “DNER in culture medium, % Mean” value (responder CD4+ T cells; [3])?
Its value is 94.6%.

What about the “Flt3L in culture medium, % Mean” value (responder CD4+ T cells; [3]) of the same molecule?
Its value is 79.3%.

What about the “IL-6 in culture medium, % Mean” value (responder CD4+ T cells; [3]) of the same molecule?
Its value is 71.6%.

What about the “IL-13 in culture medium, % Mean” value (responder CD4+ T cells; [3]) of the same molecule?
The value was 69.9%.

What about the “IL-18R1 in culture medium, % Mean” value (responder CD4+ T cells; [3]) of the same molecule?
The value was 76.1%.

What about the “IL-24 in culture medium, % Mean” value (responder CD4+ T cells; [3]) of the same molecule?
Its value is 71.8%.

And the “LAP TGF-beta-1 in culture medium, % Mean” value (responder CD4+ T cells; [3])?
Its value is 79.6%.

What about the “LIF in culture medium, % Mean” value (responder CD4+ T cells; [3]) of the same molecule?
The value was 66.9%.

What about the “MCP-1 in culture medium, % Mean” value (responder CD4+ T cells; [3]) of the same molecule?
Its value is 76.9%.

What about the “OPG in culture medium, % Mean” value (responder CD4+ T cells; [3]) of the same molecule?
Its value is 70.5%.

And the “OSM in culture medium, % Mean” value (responder CD4+ T cells; [3])?
Its value is 76.4%.

And the “STAMPB in culture medium, % Mean” value (responder CD4+ T cells; [3])?
The value was 68.6%.

And the “TNFRSF9 in culture medium, % Mean” value (responder CD4+ T cells; [3])?
Its value is 86.3%.

And the “TNFSF14 in culture medium, % Mean” value (responder CD4+ T cells; [3])?
Its value is 70.6%.

And the “TRAIL in culture medium, % Mean” value (responder CD4+ T cells; [3])?
Its value is 75.9%.

What about the “TRANCE in culture medium, % Mean” value (responder CD4+ T cells; [3]) of the same molecule?
The value was 89.3%.

What about the “μPA in culture medium, % Mean” value (responder CD4+ T cells; [3]) of the same molecule?
The value was 78.9%.

And the “4E-BP1 in culture medium, % Mean” value (responder CD4+ T cells; [4])?
Its value is 50.6%.

And the “CASP-8 in culture medium, % Mean” value (responder CD4+ T cells; [4])?
Its value is 61.4%.

And the “CCL19 in culture medium, % Mean” value (responder CD4+ T cells; [4])?
The value was 59.9%.

What about the “CCL20 in culture medium, % Mean” value (responder CD4+ T cells; [4]) of the same molecule?
The value was 66.0%.

What about the “CD40 in culture medium, % Mean” value (responder CD4+ T cells; [4]) of the same molecule?
The value was 77.8%.

And the “CDCP1 in culture medium, % Mean” value (responder CD4+ T cells; [4])?
Its value is 44.3%.

What about the “CXCL1 in culture medium, % Mean” value (responder CD4+ T cells; [4]) of the same molecule?
The value was 72.2%.

What about the “CXCL5 in culture medium, % Mean” value (responder CD4+ T cells; [4]) of the same molecule?
The value was 66.0%.

What about the “CXCL9 in culture medium, % Mean” value (responder CD4+ T cells; [4]) of the same molecule?
Its value is 62.2%.

What about the “CXCL10 in culture medium, % Mean” value (responder CD4+ T cells; [4]) of the same molecule?
The value was 60.6%.

What about the “CXCL11 in culture medium, % Mean” value (responder CD4+ T cells; [4]) of the same molecule?
Its value is 66.6%.

And the “DNER in culture medium, % Mean” value (responder CD4+ T cells; [4])?
Its value is 68.6%.

What about the “IFM-gamma in culture medium, % Mean” value (responder CD4+ T cells; [4]) of the same molecule?
The value was 73.2%.

And the “IL-5 in culture medium, % Mean” value (responder CD4+ T cells; [4])?
The value was 76.0%.

What about the “IL-8 in culture medium, % Mean” value (responder CD4+ T cells; [4]) of the same molecule?
Its value is 81.2%.

What about the “IL-12B in culture medium, % Mean” value (responder CD4+ T cells; [4]) of the same molecule?
The value was 69.4%.

What about the “IL-13 in culture medium, % Mean” value (responder CD4+ T cells; [4]) of the same molecule?
Its value is 83.0%.

And the “IL-18R1 in culture medium, % Mean” value (responder CD4+ T cells; [4])?
The value was 85.8%.

And the “OPG in culture medium, % Mean” value (responder CD4+ T cells; [4])?
The value was 66.4%.

And the “SCF in culture medium, % Mean” value (responder CD4+ T cells; [4])?
The value was 61.8%.

What about the “STAMPB in culture medium, % Mean” value (responder CD4+ T cells; [4]) of the same molecule?
Its value is 57.8%.

And the “TNF in culture medium, % Mean” value (responder CD4+ T cells; [4])?
Its value is 47.8%.

And the “TNFB in culture medium, % Mean” value (responder CD4+ T cells; [4])?
Its value is 69.0%.

And the “TNFSF14 in culture medium, % Mean” value (responder CD4+ T cells; [4])?
Its value is 60.0%.

And the “μPA in culture medium, % Mean” value (responder CD4+ T cells; [4])?
Its value is 68.0%.

And the “number of cytokines whose secretion was decreased in total” value (responder CD4+ T cells; responder group, concentration-dependent (100, 500 nM))?
The value was 37 cytokines.

What about the “proliferation in the presence of GABA” value ([1]; Example 1, FIG. 1A, CD4-positive cells from 5 healthy donors, 100 nM GABA) of the same molecule?
Its value is “did not proliferate less”.

And the “decrease of proliferation by GABA” value ([1]; Example 2, non-responder T cell population)?
The value was “did not decrease”.

And the GABAA single-channel currents (GABAA receptors)?
The GABAA single-channel currents was “activated”.

And the “proliferation in the presence of GABA” value [2]?
Its value is “proliferated less”.
